Laboratory results reported in US5502061A, “Peptidyl substituted benzamides and naphthamies” (Eli Lilly and Company, priority 1994, dated 1996).

Target: T1, HIV-1 protease (Human immunodeficiency virus type 1 group M subtype B, UniProt P04585)
T1 construct: made in house; host or cells: E. coli K12 L507/pHP10D (NRRL B-18560)
Experiment: Fluorescence HIV-1 Protease Inhibitor Assay
Type: biochemical
Conditions: concentration giving 25% inhibition; the concentration of the compound was not increased above the stated concentration; normalized to positive control
Experimental: E. Fluorescence HIV-1 Protease Inhibitor Assay
The following buffers and solutions are used in the Fluorescence HIV-1 Protease Inhibitor Assay:
To each well of a round bottom, 96-well plate is added 20 μL of the Enzyme Solution followed by 10 μL of the compound to be evaluated in a 20% aqueous dimethylsulfoxide solution. Purified HIV-1 protease was obtained as described above. […] The solutions are then incubated for 16 hours at room temperature and then each well is diluted with 150 μL of MES-ALB buffer.
To each well of a second round bottom, 96-well Pandex plate is added 25 uL of the Avidin Coated Beads Solution. Then, to each well is added 25 μL of the diluted incubation solutions, prepared above. The solutions are mixed thoroughly and the plates are loaded into a Pandex® machine, washed, evacuated and read. Sample detection was performed by excitation at 485 nm, reading the resulting epifluorescence at 535 nm.

For `CC(C)(C)NC(=O)c1ccccc1CC(O)C(Cc1ccccc1)NC(=O)C(CC(N)=O)NC(=O)C(NC(=O)OC(C)(C)C)c1ccccc1` (stereo not drawn) [Example 17, 2R-(2R*, 3S*, 6S*, 9R*)!-N-t-butyl-2-2-hydroxy-3-phenylmethyl-4,7-diaza 5,8-dioxo-6-(carbamoylmethyl)-9-N(t-butoxycarbonyl)amino-9-phenyl!nonyl benzamide], the “Fluorescence Assay IC25” value was 100 ng/mL.

Same assay, conditions: concentration giving 43% inhibition; the concentration of the compound was not increased above the stated concentration; normalized to positive control

For `CC(C)(C)NC(=O)c1ccccc1CC(O)C(Cc1ccccc1)NC(=O)C(N)CC(N)=O` (stereo not drawn) [Example 5B, 2R-(2R*, 3S*, 6S*)!-N-t-Butyl-2-2-hydroxy-3-phenylmethyl-4-aza-5-oxo-6-amino-7-carbamoyl!heptyl benzamide], the “Fluorescence Assay IC43” value was 1000 ng/mL.

Same assay, conditions: purified HIV-1 protease, biotin/FITC-labelled peptide substrate, Pandex read-out; all values normalized to the positive control (= 1.0)

Point of comparison: `CC(C)(C)NC(=O)c1ccccc1CC(O)C(Cc1ccccc1)NC(=O)C(CC(N)=O)NC(=O)C(Cc1cccc2ccccc12)NC(=O)OC(C)(C)C` (stereo not drawn) [Example 6, 2R-(2R*,3S*,6S*,9S*)!-N-t-Butyl-2-2-hydroxy-3-phenylmethyl-4,7-diaza-5,8-dioxo-6-(carbamoylmethyl)-9-N(t-butoxycarbonyl)amino-10-naphth-1-yl!decyl benzamide], “Fluorescence Assay IC50” value 2.4 ng/mL. Against it:
- 2R- (2R*, 3S*, 6S*, 9R*)!-N-t-Butyl-2- 2-hydroxy-3-phenylmethyl-4,7-diaza -2,8-dioxo-6-(1-methylethyl)-9-amino-10-naphth-1-yl!benzamide [Example 4] — within 1.5-fold, 2.48 ng/mL
- 2R-(3R*,3S*,6S*,9R*)!-N-t-Butyl-2- 2-hydroxy-3-phenylmethyl-4,7-diaza -5,8,dioxo-6-(carbamoylmethyl)-9-amino-10-naphth-1-yl!decyl benzamide [Example 8] — within 1.5-fold, 2.28 ng/mL
- CC(C)C(NC(=O)C(Cc1cccc2ccccc12)NC(=O)OC(C)(C)C)C(=O)NC(Cc1ccccc1)C(O)Cc1ccccc1C(=O)NC(C)(C)C (stereo not drawn) [Example 1C, 2R-(2R*, 3S*, 6S*, 9S*)!-N-t-Butyl-2-2-hydroxy-3-phenylmethyl-4,7-diaza-5,8-dioxo-6-(1-methylethyl)-9-N(t-butoxycarbonyl)amino-10-naphth-1-yl!decyl benzamide] — 1.7-fold lower, 1.44 ng/mL
- CC(C)C(NC(=O)C(Cc1cccc2ccccc12)NC(=O)OC(C)(C)C)C(=O)NC(Cc1ccccc1)C(O)Cc1ccccc1C(=O)NC(C)(C)C (stereo not drawn) [Example 2, 2R-(2R*,3S*,6S*,9R*)!-N-t-Butyl-2-2-hydroxy-3-phenylmethyl-4,7-diaza-5,8-dioxo-6-(1-methylethyl)-9-N(t-butoxycarbonyl)amino-10-naphth-1-yl!decyl benzamide] — within 1.5-fold, 3.13 ng/mL
- CC(C)C(NC(=O)C(N)Cc1cccc2ccccc12)C(=O)NC(Cc1ccccc1)C(O)Cc1ccccc1C(=O)NC(C)(C)C (stereo not drawn) [Example 3, 2R-(2R*, 3S*, 6S*, 9S*)!-N-t-Butyl-2-2-hydroxy-3-phenylmethyl-5,8-dioxo-6-(1-methylethyl)-9-amino-10-naphth-1-yl!decyl benzamide] — 5-fold lower, 0.48 ng/mL
- CC(C)(C)NC(=O)c1ccccc1CC(O)C(Cc1ccccc1)NC(=O)C(CC(N)=O)NC(=O)C(Cc1cccc2ccccc12)NC(=O)OC(C)(C)C (stereo not drawn) [Example 5C, 2R-(2R*,3S*, 6S*,9R*)!-N-t-Butyl-2-2-hydroxy-3-phenylmethyl-4,7-diaza-5,8-dioxo-6-(carbamoylmethyl)-9-N(t-butoxycarbonyl))amino-10-naphth-1-yl!decyl benzamide] — 4.5-fold lower, 0.53 ng/mL
- CC(C)(C)NC(=O)c1ccccc1CC(O)C(Cc1ccccc1)NC(=O)C(CC(N)=O)NC(=O)C(N)Cc1cccc2ccccc12 (stereo not drawn) [Example 7, 2R-(2R*, 3S*, 6S*, 9S*)!-N-t-Butyl-2-2-hydroxy-3-phenylmethyl-4,7-diaza-5,8-dioxo-6-(carbamoylmethyl)-9-amino-10-naphth-1-yl!decyl benzamide] — 2.5-fold lower, 0.95 ng/mL
- CC(C)(C)NC(=O)c1ccccc1CC(O)C(Cc1ccccc1)NC(=O)C(CC(N)=O)NC(=O)C(Cc1ccccc1)NC(=O)OC(C)(C)C (stereo not drawn) [Example 9, 2R-(2R*, 3S*, 6S*, 9S*)!-N-t-Butyl-2-2-hydroxy-3-phenylmethyl-4,7-diaza-5,8-dioxo-6-(carbamoylmethyl)-9-N(t-butoxycarbonyl)amino-10-phenyl!decyl benzamide] — within 1.5-fold, 1.76 ng/mL
- CC(C)(C)NC(=O)c1ccccc1CC(O)C(Cc1ccccc1)NC(=O)C(CC(N)=O)NC(=O)C(Cc1ccccc1)NC(=O)OC(C)(C)C (stereo not drawn) [Example 10, 2R-(2R*, 3S*, 6S*, 9R* )!-N-t-Butyl-2-2-hydroxy-3-phenylmethyl-4,7-diaza-5,8-dioxo-6-(carbamoylmethyl)-9-N(t-butoxycarbonyl)amino-10-phenyl!decyl benzamide] — within 1.5-fold, 1.67 ng/mL
- CC(C)(C)NC(=O)c1ccccc1CC(O)C(Cc1ccccc1)NC(=O)C(Cc1c[nH]cn1)NC(=O)C(Cc1cccc2ccccc12)NC(=O)OC(C)(C)C (stereo not drawn) [Example 11C, 2R-(2R*,3S*,6S*,9S*)!-N-t-Butyl-2-2-hydroxy-3-phenylmethyl-4,7-diaza-5,8-dioxo-6-(imidazol-4-ylmethyl)-9-N(t-butoxycarbonyl)amino-10-naphth-1-yl!decyl benzamide] — 3.2-fold higher, 7.78 ng/mL
- CC(C)(C)NC(=O)c1ccccc1CC(O)C(Cc1ccccc1)NC(=O)C(Cc1c[nH]cn1)NC(=O)C(Cc1cccc2ccccc12)NC(=O)OC(C)(C)C (stereo not drawn) [Example 12, 2R-(2R*,3S*,6S*,9R*)!-N-t-Butyl-2-2-hydroxy-3-phenylmethyl-4,7-diaza-5,8-dioxo-6-(imidazol-4-ylmethyl)-9-N(t-butoxycarbonyl)amino-10-naphth-1-yl!decyl benzamide] — within 1.5-fold, 1.6 ng/mL
- CC(C)(C)NC(=O)c1ccccc1CC(O)C(Cc1ccccc1)NC(=O)C(CC(N)=O)NC(=O)C(Cc1c[nH]c2ccccc12)NC(=O)OC(C)(C)C (stereo not drawn) [Example 14, 2R-(2R*, 3S*, 6S*, 9S*)!-N-t-Butyl-2-2-hydroxy-3-phenylmethyl-4,7-diaza-5,8-dioxo-6-(carbamoylmethyl)-9-N(t-butoxycarbonyl)amino-10-indol-3-yl!decyl benzamide] — 2.6-fold lower, 0.93 ng/mL
- CC(C)(C)NC(=O)c1cccc(CC(O)C(Cc2ccccc2)NC(=O)C(CC(N)=O)NC(=O)C(Cc2c[nH]c3ccccc23)NC(=O)OC(C)(C)C)c1 (stereo not drawn) [Example 15, 2R-(2R*, 3S*, 6S*, 9R*)!-N-t-Butyl-3-2-hydroxy-3-phenylmethyl-4,7-diaza-5,8-dioxo-6-(carbamoylmethyl)-9-N(t-butoxycarbonyl)amino-10-indol-3-yl!decyl benzamide] — 2.3-fold lower, 1.05 ng/mL
- CC(C)(C)NC(=O)c1ccccc1CC(O)C(Cc1ccccc1)NC(=O)C(CC(N)=O)NC(=O)C(NC(=O)OC(C)(C)C)c1ccccc1 (stereo not drawn) [Example 16, 2R-(2R*, 3S*, 6S*, 9S*)!-N-t-Butyl-2-2-hydroxy-3-phenylmethyl-4,7-diaza-5,8-dioxo-6-(carbamoylmethyl)-9-N(t-butoxycarbonyl)amino-9-phenyl!nonyl benzamide] — 44-fold higher, 106 ng/mL

For `CC(C)(C)NC(=O)c1ccccc1CC(O)C(Cc1ccccc1)NC(=O)C(CC(N)=O)NC(=O)C(Cc1cccc2ccccc12)NC(=O)OC(C)(C)C` (stereo not drawn) [Example 13, 2R-(2R*,3S*, 6R*,9S*)!-N-t-Butyl-2-2-hydroxy-3-phenylmethyl-4,7-diaza-5,8-dioxo-6-(carbamoylmethyl)-9-N(t-butoxycarbonyl)amino-10-naphth-1-yl!decyl benzamide], the “Fluorescence Assay IC50” value was greater than 10000 ng/mL.
